Results on eight molecules are retold here after US20240124483A1, “Methods for the Treatment of Fibrotic Disease” (SHY Therapeutics, LLC, priority 2021, published 2024).

Structures are written as SMILES. Where two headings read alike, the source gives them in different places.

One experiment has as its target Rac-1 (Homo sapiens (Human), UniProt P63000). Put plainly: Ras GTP Binding Domain Inhibition Assay, Rac-1. How it is done:
(§1) A Ras Superfamily Activity Assay (as disclosed in International Application No. PCT/US2018/038613, filed Jun. 20, 2018, which is incorporated by reference in its entirety) was used as a specific assay to evaluate compounds against the following for the following Ras Superfamily proteins: KRas wild type, KRas Q61H mutant, KRas G12C mutant, KRas G12D mutant, Rac-1, and Rho-A.
(§2) Buffer-I: • 25 mM Tris-HCl, pH 7.4 • 27 mM KCl • 137 mM NaCl • 1 mM MgCl2 • 1 mM DTT
(§3) Buffer-II: • 50 mM Tris-HCl, pH 7.0 • 1 mM MgCl2 • 1 mM DTT
(§4) The small GTPases proteins: KRas wild type. KRas Q61H mutant, KRas G12C mutant, KRas G12D mutants, Rac-1, and Rho-A were expressed as His-tagged proteins. In addition, the Guanosine nucleotide Exchange Factor (GEF) Sos protein (residues 556-1049) was expressed as a His-tagged protein. In cells, the guanine nucleotide exchange factor Sos protein promotes activation of Ras proteins by stimulating an exchange of GDP for GTP. The inclusion of Sos to the Ras GTP binding domain inhibition assay may be considered as an alternative representation of physiological cellular conditions for evaluating the inhibitory activity of some of the tested small molecules.
(§5) For the assay, all purified small GTPases proteins were diluted in Buffer-I or Buffer-II to a final concentration of 10-30 μg/mL. 200 μL of each diluted protein was added to a nickel-coated 96-well plate and incubated overnight at 4° C. Then the protein solution was discarded and 200 μL of Buffer-I or Buffer-II was added to each well in the presence of 1% DMSO. Compounds to be tested were added to the protein-coated wells at final concentration of 20 μM, and incubated for 3 hours at room temperature with and without 10-30 μg/mL of Sos added to the final hour of the incubation. When performing IC50 measurements a serial dilution of all tested concentrations was added. Then Cy3-GTP or Cy5-GTP was added to each well to a final concentration of 100 nM. The labeled GTP was incubated for 45 minutes at room temperature. Following GTP incubation, wells were washed 3× in Buffer-I or Buffer-II and 200 μL of Buffer-I or Buffer-II was added to each well. Following washes, the amount of bound labeled-GTP was measured using a SpectraMax M3 (Molecular Devices).

The subject of a further experiment is JNK. Put plainly: JNK Activation Assay in Panc-1 (western blot). It counts as cell-based, Human. Set-up: key: Y = yes; N = No. The settings on record: at 10 μM. Here is the method:
(§6) Cell lines: Human tumor-derived pancreatic cancer cell line Panc-1 and mouse muscle myoblast C2C12 were purchased from American Type Culture Collection and grown in complete DMEM-High Glucose, supplemented with penicillin (100 U/mL), streptomycin (100 μg/mL), and 10% heat-inactivated FBS at 37° C. in a humidified incubator with 5% CO2.
(§7) Method: Cells were plated at 350000 cells/well density in a 12-well plate, allowed 3 hours to adhere to the plate, then starved in the appropriate medium in the presence of 0.5% FBS overnight. The small molecules to be tested were added to the cells in the final concentration of 10 μM in the presence of 0.3% DMSO for 3 hours incubation at 37° C. For IC50 value determination, serial dilutions of compounds were added to cells under the same conditions. Next, Panc-1 cells were stimulated with 10 ng/ml TGF-b1 for 1 hour, and C2C12 cells were stimulated with 10 ng/ml TGF-b1 for 20 minutes (recombinant human TGF-b1, R&D Systems). After stimulation cells were lysed with lysis buffer containing 1% Triton X-100, EDTA, and Halt™ Protease & Phosphatase Inhibitor Cocktail (Thermo Scientific). Protein concentration was assessed by BCA protein assay (Thermo Scientific). Phosphorylation level of JNK was determined by western blot.
(§8) Western blot protocol: Equal amounts of protein (15-50 μg) were separated by SDS-PAGE and transferred to nitrocellulose membranes (Invitrogen by Thermo Fisher Scientific). The membrane was stained with Ponceau S Stain (Boston BioProducts) to verify uniform protein loading. Membranes were blocked with 10% milk and phosphorylation levels of Smad2, Smad3, INK and p38 were assessed by incubating overnight at 4° C. with the following antibody: Phospho-SAPK/JNK (Thr183/Tyr185), from Cell Signaling Technology. Then the membranes were incubated with HRP-conjugated secondary antibody (Jackson Immunoresearch, West Grove, PA). Bands were incubated in Amersham ECL Prime Western Blotting Detection Reagent (GE Healthcare) and visualized using the ChemiDoc MP imaging system (Bio-Rad).

The target of another experiment is KRas wild type (Homo sapiens (Human), UniProt P01116). Description: Ras GTP Binding Domain Inhibition Assay, KRas wild type. How it is done:
as §1, §2, §3, §4, §5

The target of a further experiment is KRas G12C mutant (Homo sapiens (Human), UniProt P01116, G12C). Put plainly: Ras GTP Binding Domain Inhibition Assay, KRas G12C mutant. Here is the method:
as §1, §2, §3, §4, §5

For the next experiment, the system named is MAPK p38. Put plainly: MAPK p38 Activation Assay in Panc-1 (western blot). In kind it is cell-based, Human. Set-up: key: Y = yes; N = No. The settings on record: at 10 μM. Here is the method:
as §6
as §7, with “MAPK p38” for “JNK”
as §8, with “Smad2/Smad3” for “Smad2, Smad3, INK and p38”, “Phospho-p38 MAPK (Thr180/Tyr182),” for “Phospho-SAPK/JNK (Thr183/Tyr185),”

Where [1] appears, read: without SOS, read-out: Rac-1: % inh.
Where [2] appears, read: + SOS, read-out: KRas wild type + SOS: % inh.
Setting [3] is: without SOS, read-out: KRas wild type: % inh.
Where [4] appears, read: + SOS, read-out: KRas G12C mutant + SOS: % inh.
The mark [5] stands for this setting: without SOS, read-out: KRas G12C mutant: % inh.
Setting [6] is: + SOS, read-out: Rac-1 + SOS: % inh.

Chain of KRas wild type (P01116 other isoform, or with tags, fused parts or gaps): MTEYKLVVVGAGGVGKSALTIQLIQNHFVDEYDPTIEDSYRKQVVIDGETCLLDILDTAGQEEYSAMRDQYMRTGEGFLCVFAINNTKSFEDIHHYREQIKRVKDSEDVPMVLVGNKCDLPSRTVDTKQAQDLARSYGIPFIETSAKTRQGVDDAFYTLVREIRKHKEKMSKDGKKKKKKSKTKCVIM
Chain of KRas G12C mutant (P01116 other isoform, or with tags, fused parts or gaps G12C): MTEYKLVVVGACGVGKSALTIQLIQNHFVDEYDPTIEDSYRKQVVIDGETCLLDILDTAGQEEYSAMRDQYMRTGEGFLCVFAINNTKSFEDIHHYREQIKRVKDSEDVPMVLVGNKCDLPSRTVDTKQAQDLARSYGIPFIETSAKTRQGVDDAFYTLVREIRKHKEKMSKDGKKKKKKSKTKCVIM

As to `Cc1c(-c2ccn(C(C)C)n2)sc2nc(-c3nccn3C)nc(NCCN3CCOCC3)c12` [Compound 22, 6-(1-Isopropyl-1H-pyrazol-3-yl)-5-methyl-2-(1-methyl-1H-imidazol-2-yl)-N-(2-morpholinoethyl)thieno[2,3-d]pyrimidin-4-amine], the inhibition at 20 µM on Rac-1 (setting [1]), on KRas wild type (setting [2]), on KRas wild type (setting [3]), on KRas G12C mutant (setting [4]) and at KRas G12C mutant (setting [5]) was 76 to 100% each time. Besides, the “Activation of JNK in PANC-1” value with JNK is reported as “Y”. Moreover, the “Activation of MAPK p38 in PANC-1” value in the experiment with MAPK p38 was “Y”.
Turning to `COCCNc1nc(-c2nccn2C)nc2sc(-c3ccccc3)c(-c3ccccc3)c12` [Compound 1, N-(2-Methoxyethyl)-2-(1-methyl-1H-imidazol-2-yl)-5,6-diphenylthieno[2,3-d]pyrimidin-4-amine], the inhibition at 20 µM on Rac-1 (setting [1]) was in the range of 76 to 100%; at KRas wild type (setting [2]), 1 to 25%; at KRas wild type (setting [3]) it was 1 to 25%; at KRas G12C mutant (setting [5]), 46 to 75%. The “Activation of JNK in PANC-1” value in the experiment on JNK was “Y”. The “Activation of MAPK p38 in PANC-1” value in the experiment on MAPK p38 was “N”.
As for `COc1cc(-c2sc3nc(-c4nccn4C)nc(N[C@H]4C[C@H](OC)C4)c3c2-c2ccccc2)ccn1` [Compound 46, N-((1r,3r)-3-Methoxycyclobutyl)-6-(2-methoxypyridin-4-yl)-2-(1-methyl-1H-imidazol-2-yl)-5-phenylthieno[2,3-d]pyrimidin-4-amine], the inhibition at 20 µM at Rac-1 (setting [1]) was in the range of 46 to 75%; on KRas wild type (setting [2]), 76 to 100%; on KRas wild type (setting [3]), 46 to 75%; on KRas G12C mutant (setting [4]), 76 to 100%; at KRas G12C mutant (setting [5]), 26 to 45%. In addition, in the experiment on JNK, the “Activation of JNK in PANC-1” value is “Y”. In the experiment on MAPK p38, the “Activation of MAPK p38 in PANC-1” value was “N”.
Take `COC1CCN(c2nc(-c3nccn3C)nc3sc(-c4ccn(C)n4)c(-c4ccccc4)c23)CC1` [Compound 6, 4-(4-Methoxypiperidin-1-yl)-2-(1-methyl-1H-imidazol-2-yl)-6-(1-methyl-1H-pyrazol-3-yl)-5-phenylthieno[2,3-d]pyrimidine]: the inhibition at 20 µM is 26 to 45% on Rac-1 (setting [6]); 26 to 45% on Rac-1 (setting [1]); 26 to 45% at KRas wild type (setting [2]); 0% at KRas wild type (setting [3]); 46 to 75% at KRas G12C mutant (setting [4]); 26 to 45% at KRas G12C mutant (setting [5]). Besides, the “Activation of JNK in PANC-1” value in the experiment on JNK was “Y”. Also, the “Activation of MAPK p38 in PANC-1” value with MAPK p38 was “N”.
In the case of `COc1cccc(Nc2nc(-c3nccn3C)nc3sc(-c4ccn(C(C)C)n4)c(C)c23)c1` [Compound 17, 6-(1-Isopropyl-1H-pyrazol-3-yl)-N-(3-methoxyphenyl)-5-methyl-2-(1-methyl-1H-imidazol-2-yl)thieno[2,3-d]pyrimidin-4-amine], the inhibition at 20 µM lay in the range of 26 to 45% on Rac-1 (setting [1]); 46 to 75% on KRas wild type (setting [2]); 26 to 45% on KRas wild type (setting [3]); 76 to 100% at KRas G12C mutant (setting [4]); 46 to 75% at KRas G12C mutant (setting [5]). Moreover, the “Activation of JNK in PANC-1” value in the experiment on JNK is given as “Y”. Besides, the “Activation of MAPK p38 in PANC-1” value in the experiment on MAPK p38 was “Y”.
For `COc1cccc(-c2sc3nc(-c4nccn4C)nc(NC4CCC(OC)C4)c3c2C)c1F` (racemic) [Compound 10, rac-6-(2-Fluoro-3-methoxyphenyl)-N-((1R,3S)-3-methoxycyclopentyl)-5-methyl-2-(1-methyl-1H-imidazol-2-yl)thieno[2,3-d]pyrimidin-4-amine and rac-6-(2-Fluoro-3-methoxyphenyl)-N-((1R,3R)-3-methoxycyclopentyl)-5-methyl-2-(1-methyl-1H-imidazol-2-yl)thieno[2,3-d]pyrimidin-4-amine], the inhibition at 20 µM on Rac-1 (setting [6]) was in the range of 46 to 75%; on Rac-1 (setting [1]) it was 46 to 75%; on KRas wild type (setting [2]), 46 to 75%; on KRas wild type (setting [3]) it was 46 to 75%; on KRas G12C mutant (setting [4]), 46 to 75%; at KRas G12C mutant (setting [5]), 76 to 100%. Further, in the experiment on JNK, the “Activation of JNK in PANC-1” value was “Y”. The “Activation of MAPK p38 in PANC-1” value with MAPK p38 is listed as “Y”.
`CO[C@@H]1CC[C@H](Nc2nc(-c3nccn3C)nc3sc(-c4ccn(C(C)C)n4)c(-c4ccccc4)c23)C1` (single isomer, unassigned) [Compound 11]: the inhibition at 20 µM was in the range of 26 to 45% on Rac-1 (setting [6]); 1 to 25% at Rac-1 (setting [1]); 76 to 100% on KRas wild type (setting [2]); 46 to 75% on KRas wild type (setting [3]); 76 to 100% at KRas G12C mutant (setting [4]); 46 to 75% at KRas G12C mutant (setting [5]). In the experiment on JNK, the “Activation of JNK in PANC-1” value is reported as “Y”. The “Activation of MAPK p38 in PANC-1” value in the experiment on MAPK p38 is “Y”.
On to `CO[C@H]1CC[C@@H](Nc2nc(-c3nccn3C)nc3sc(-c4ccn(C(C)C)n4)c(C)c23)C1` (racemic) [Compound 12, rac-6-(1-Isopropyl-1H-pyrazol-3-yl)-N-((1R,3S)-3-methoxycyclopentyl)-5-methyl-2-(1-methyl-1H-imidazol-2-yl)thieno[2,3-d]pyrimidin-4-amine], for which the inhibition at 20 µM was 46 to 75% at Rac-1 (setting [6]); 46 to 75% on Rac-1 (setting [1]); 76 to 100% at KRas wild type (setting [2]); 76 to 100% on KRas wild type (setting [3]); 76 to 100% on KRas G12C mutant (setting [4]); 46 to 75% on KRas G12C mutant (setting [5]). In the experiment on JNK, the “Activation of JNK in PANC-1” value was “Y”. Also, the “Activation of MAPK p38 in PANC-1” value with MAPK p38 is recorded as “Y”.
